Measurements from paper PMC9847973, “Characterizing inhibitors of human AP endonuclease 1” (PLOS ONE, 2023).
Like-named read-outs stand apart in the source and are kept apart here.

What was measured:
[1] = biological target: T1, Human APE1 lacking the 38 N-terminal residues (APE1^ΔN38) (Homo sapiens, UniProt P27695); experiment: APE1 endonuclease activity assay (HPLC, fraction activity); type: biochemical
T1 construct: Human APE1 lacking the 38 N-terminal residues (APE1^ΔN38); poly-His (N, cleaved yes); made in house; host or cells: E. coli

[2] = Dynamic light scattering (DLS) of compound aggregation; type: physicochemical; details: for effect of detergent on aggregation: 0.05% Brij 35; for concentration at which colloidal aggregates form: 20°C; for effect of centrifugation on aggregates: detergent-free buffer, centrifugation (60 min, 16000g)
Procedure: Dynamic light scattering (DLS) experiments were performed to monitor compound aggregation, using a SpectroLight 610 instrument (Xtal Concepts, Hamburg). The instrument features a laser diode (λ 658 nm) which was set to a power of 100 mW and a scattering angle of 150°. For each sample, five replicates of 60 sec duration were collected at 20°C. Instrument settings, including integration time, were held constant for all experiments. Samples (1 ul) were prepared under mineral oil in 96 well SBS plates. Samples included the same buffer used for enzyme activity assays, with or without Brij 35 (and in all cases without BSA). The compounds were introduced from 100x stocks prepared in DMSO, giving a final DMSO concentration of 1%; samples without compound contained 1% DMSO. The DLS studies were in some cases performed using compound stocks that had been stored at –20°C in DMSO.

APE1 = details: cited from earlier work
apo APE1^ΔN38 = biological target: T2, apo APE1^ΔN38 (Homo sapiens, UniProt P27695); experiment: NMR chemical shift perturbation (15N-TROSY), apo APE1; type: binding; details: for number of residues with relatively strong CSPs (Δδ ≥ 0.03 ppm) / number of residues with substantial CSPs (Δδ ≥ 0.015 ppm) / sum of CSPs (ΣΔδ) for all assigned APE1 residues: apo APE1^ΔN38 0.15 mM, compound 1 mM
T2 construct: Human APE1 lacking the 38 N-terminal residues (APE1^ΔN38); poly-His (N, cleaved yes); made in house; host or cells: E. coli

Mg^2+-bound APE1 = biological target: T3, Mg^2+-bound APE1 (Homo sapiens, UniProt P27695); experiment: NMR chemical shift perturbation (15N-TROSY), Mg2+-bound APE1; type: binding; details: MgCl2 0.25 mM or 1.0 mM
T3 construct: Human APE1 lacking the 38 N-terminal residues (APE1^ΔN38); poly-His (N, cleaved yes); made in house; host or cells: E. coli
Procedure: NMR samples (0.55 mL) contained uniformly ^15N-labeled APE1^ΔN38 (0.05 mM to 0.15 mM) in 0.02 M sodium phosphate pH 6.5, 0.1 M NaCl, 0.5 mM DTT, 0.2 mM EDTA, 10% D2O. The compounds were dissolved at 100x concentration in deuterated DMSO (DMSO-D6) and were added to the NMR samples at 1% (v/v) to give the desired compound concentration (and 1% DMSO-D6). Control samples contained APE1 with 1% DMSO-D6. […] NMR data were processed with NMRPipe, and analyzed using NMRFAM-Sparky. The chemical shift perturbation (Δδ) for backbone ^1H-^15N resonances (combined) was calculated (by NMRFAM-Sparky) using Eq 2, Δδ=ΔδH^2+ΔδN/5^2^1/2 (2) where ΔδH and ΔδN are the perturbations for ^1H and ^15N resonances, respectively.
Given the findings above, we sought to investigate whether compounds 6 or 7 might bind to the Mg^2+-bound form of APE1. […] Crystal structures of Mg^2+-bound APE1 have been determined, using crystals grown from a sample of APE1 with 1.0 mM MgCl2, a concentration that is sufficient to fully populate the metal-binding site with Mg^2+ [52, 73]. […]

[3] = Precipitation of compound in NMR samples; type: physicochemical; details: NMR buffer pH 6.5
Procedure: The NMR sample contained 0.03 mM compound 7 and 0.05 mM APE1, giving a molar ratio of 0.6. […] To minimize precipitation of 7, the NMR samples (including DMSO control) contained detergent (0.05% Brij 35) at the same concentration used for the activity assays. […] Thus, the NMR CSP studies provide no evidence that compound 7 binds specifically to apo-APE1. […] In particular, the population of AP-DNA bound was reduced from 100% (absence of 7) to about 30% and 5% in the presence of 7 at a concentration of 0.01 mM and 0.03 mM, respectively, indicating 7 binds with a Kd <0.01 mM to either APE1 or to AP-DNA.

[4] = system: enzyme-substrate (ES) complex involving APE1 (28 nM) and AP-DNA (10 nM); parameters: method as in PMID 22455312; details: cited from earlier work; for population of AP-DNA bound: 100% in its absence
[5] = detergent-free assay buffer, 1% DMSO
[6] = 0.05% Brij 35, 0.1 mg/ml BSA, 80 nM DNA substrate, 23°C, 1% DMSO, read-out: IC50 for APE1 inhibition
[7] = no detergent or BSA, 37°C, read-out: IC50 for APE1 inhibition (prior findings)
[8] = read-out: IC50 for APE1 inhibition (reported)

T1 sequence (P27695 39-318): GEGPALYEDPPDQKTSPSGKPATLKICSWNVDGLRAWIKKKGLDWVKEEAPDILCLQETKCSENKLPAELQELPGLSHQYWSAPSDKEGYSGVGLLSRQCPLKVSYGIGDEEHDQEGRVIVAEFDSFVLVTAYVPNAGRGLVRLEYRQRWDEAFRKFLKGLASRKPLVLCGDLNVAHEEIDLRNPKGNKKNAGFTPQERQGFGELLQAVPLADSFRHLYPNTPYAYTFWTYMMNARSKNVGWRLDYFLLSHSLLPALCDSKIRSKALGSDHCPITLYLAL
T2 sequence (P27695 39-318): as above
T3 sequence (P27695 39-318): as above

O=c1c(O)c(-c2cc(O)c(O)c(O)c2)oc2cc(O)cc(O)c12 [Compound 5, myricetin]
inhibition of APE1 ([1]; 0.33 mM compound, with detergent (0.05% Brij 35) and BSA): weak inhibition | effect of detergent on aggregation [2]: disrupted by detergent | concentration at which colloidal aggregates form [2, 5]: ≥ 330 µM | effect of centrifugation on aggregates [2]: pelleted by centrifugation | IC50 (APE1; read-out: IC50 for APE1 inhibition (previous finding)): 0.3 µM

Cc1cc(C)c2c(N)c3cccc(C)c3nc2n1 [Compound 6]
slope factor of the dependence of FA on compound concentration ([1]; 0.05% Brij 35, 0.1 mg/ml BSA): 1.5 ± 0.2 | IC50 [1, 6]: 3.1 ± 0.3 µM | IC50 ([1]; as restated in the NMR section, read-out: IC50 observed here): 3 µM | residues exhibiting Δδ >0.015 ppm (apo APE1^ΔN38; 0.10 mM apo APE1, 0.30 mM compound): no residues | CSPs (Δδ >0.015 ppm) for any residue of Mg2+-bound APE1 (Mg^2+-bound APE1; compound 0.30 mM, APE1 0.10 mM): does not induce CSPs | IC50 (APE1; read-out: IC50 for APE1 inhibition in vitro (previous finding)): 2 µM

O=C(O)c1cc2cc([N+](=O)[O-])ccc2[nH]1 [Compound 3, 5-nitroindole-2-carboxylic acid]
effect of detergent on aggregation [2]: disrupted by detergent | effect of centrifugation on aggregates [2]: pelleted by centrifugation | number of residues with relatively strong CSPs (Δδ ≥ 0.03 ppm) (apo APE1^ΔN38): 14 | number of residues with substantial CSPs (Δδ ≥ 0.015 ppm) (apo APE1^ΔN38): 20 | sum of CSPs (ΣΔδ) for all assigned APE1 residues (apo APE1^ΔN38): 2.47

CC(=O)Nc1sc2c(c1-c1nc3ccccc3s1)CCN(C(C)C)C2 [Compound 7, N-(3-(benzo[d]-thiazol-2-yl)-6-isopropyl-4,5,6,7-tetrahydrothieno[2,3-c]-pyridin-2-yl)acetamide]
slope factor of the dependence of FA on compound concentration ([1]; 0.05% Brij 35, 0.1 mg/ml BSA): 1.2 ± 0.1 | IC50 [1, 6]: 8.1 ± 0.6 µM | residues exhibiting Δδ >0.015 ppm (apo APE1^ΔN38; 0.05 mM apo APE1, 0.03 mM compound, 0.05% Brij 35): two | Kd (apo APE1^ΔN38; inferred from the absence of a detectible interaction, apo-APE1 0.05 mM, compound 0.03 mM, read-out: Kd for binding to apo-APE1): > 30 µM | CSPs (Δδ >0.015 ppm) for any backbone residue of Mg2+-bound APE1 (Mg^2+-bound APE1; compound 0.030 mM, APE1 0.05 mM, 0.05% Brij 35): fails to induce CSPs | concentration at which the compound precipitates in NMR samples [3]: ≥ 90 µM | population of AP-DNA bound ([4]; compound 0.01 mM): about 30% | population of AP-DNA bound ([4]; compound 0.03 mM): ~ 5% | Kd ([4]; inferred from the previous EMSA results, read-out: Kd for binding to either APE1 or AP-DNA): < 10 µM

O=C(O)c1cc2cccc([N+](=O)[O-])c2[nH]1 [Compound 1, 7-nitroindole-2-carboxylic acid]
effect of detergent on aggregation [2]: disrupted by detergent | concentration at which colloidal aggregates form [2, 5]: 2000 µM | effect of centrifugation on aggregates [2]: pelleted out of solution by centrifugation | number of residues with substantial CSPs (Δδ ≥ 0.015 ppm) (apo APE1^ΔN38): 14 | sum of CSPs (ΣΔδ) for all assigned APE1 residues (apo APE1^ΔN38): 1.19 | IC50 (APE1; [7]): ≤ 10 µM | IC50 (APE1; [8]): 3 µM

O=C(O)c1cc2ccc(Br)cc2[nH]1 [Compound 4, 6-bromoindole-2-carboxylic acid]
effect of detergent on aggregation [2]: disrupted by detergent | concentration at which colloidal aggregates form [2, 5]: ≥ 1000 µM | effect of centrifugation on aggregates [2]: pelleted by centrifugation | number of residues with relatively strong CSPs (Δδ ≥ 0.03 ppm) (apo APE1^ΔN38): eight | number of residues with substantial CSPs (Δδ ≥ 0.015 ppm) (apo APE1^ΔN38): 22 | sum of CSPs (ΣΔδ) for all assigned APE1 residues (apo APE1^ΔN38): 2.54

O=C(O)c1cc2cc(F)ccc2[nH]1 [Compound 2, 5-fluoroindole-2-carboxylic acid]
effect of detergent on aggregation [2]: disrupted by detergent | concentrations at which the compound is free of aggregates [2, 5]: below 3 mM | concentration at which colloidal aggregates form [2, 5]: 10000 µM | effect of centrifugation on aggregates [2]: pelleted by centrifugation | number of residues with substantial CSPs (Δδ ≥ 0.015 ppm) (apo APE1^ΔN38): ten | sum of CSPs (ΣΔδ) for all assigned APE1 residues (apo APE1^ΔN38): 1.31 | IC50 (APE1; [7]): ≤ 10 µM | IC50 (APE1; [8]): 10 µM
